Assay results as given in ChEMBL document CHEMBL1201862, “PubChem BioAssay data set” (2004).
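Test compounds were applied to cells in 96-well plates for 48 hours at 5 doses. Abbreviation: GI50, concentration required for 50% inhibition of growth.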 Active and inactive are the calls of the source. Rule as the data show it: active = GI50 up to about 1.1 µM and inactive = higher. Where a SMILES comes first, the peptide text is derived from it. [ ]: non-standard residue; d: D form. Hiv = CC(C)[C@H](O)C(=O)O

Legend:
Assay in all cases: growth of human tumour cells (NCI), 48 h
NCI/ADR-RES = system: NCI/ADR-RES
A549 = system: A549
SK-MEL-2 = system: SK-MEL-2
CAKI-1 = system: CAKI-1
SR = system: SR
IGROV-1 = system: IGROV-1
PC-3 = system: PC-3
MOLT-4 = system: MOLT-4
A498 = system: A498
M14 = system: M14
Hs-578T = system: Hs-578T
KM12 = system: KM12
OVCAR-8 = system: OVCAR-8
SNB-75 = system: SNB-75
MDA-N = system: MDA-N
OVCAR-5 = system: OVCAR-5
SF-268 = system: SF-268
UACC-257 = system: UACC-257
RPMI-8226 = system: RPMI-8226
LOX IMVI = system: LOX IMVI

Row | Compound | GI50 (NCI/ADR-RES) | GI50 (A549) | GI50 (SK-MEL-2) | GI50 (CAKI-1) | GI50 (SR) | GI50 (IGROV-1) | GI50 (PC-3) | GI50 (MOLT-4) | GI50 (A498) | GI50 (M14) | GI50 (Hs-578T) | GI50 (KM12) | GI50 (OVCAR-8) | GI50 (SNB-75) | GI50 (MDA-N) | GI50 (OVCAR-5) | GI50 (SF-268) | GI50 (UACC-257) | GI50 (RPMI-8226) | GI50 (LOX IMVI)
1 | Cc1ncc([N+](=O)[O-])n1CCNC(=O)Cn1c([N+](=O)[O-])cnc1C | > 100 µM (inactive) | > 100 µM (inactive) | > 100 µM (inactive) | > 100 µM (inactive) | > 100 µM (inactive) | > 100 µM (inactive) | > 100 µM (inactive) | > 100 µM (inactive) | > 100 µM (inactive) | > 100 µM (inactive) | > 100 µM (inactive) | > 100 µM (inactive) | > 100 µM (inactive) | 76.2 µM (inactive) | > 100 µM (inactive) | > 100 µM (inactive) | > 100 µM (inactive) | > 100 µM (inactive) |  | 
2 | CCCC(=O)OC1CC(n2cc(F)c(=O)[nH]c2=O)OC1COP(=O)(OCC(Cl)(Cl)Cl)OCC(Cl)(Cl)Cl (centres undefined) | 1.17 µM (inactive) | 0.461 µM (active) | > 59.4 µM (inactive) | 0.283 µM (active) | 1.25 µM (inactive) | 14.8 µM (inactive) | 7.74 µM (inactive) | 2.48 µM (inactive) |  | 2.06 µM (inactive) | 13.9 µM (inactive) | 19.1 µM (inactive) | 0.925 µM (active) | 8.04 µM (inactive) | 7.01 µM (inactive) | 28.4 µM (inactive) | 0.766 µM (active) | 21.7 µM (inactive) | 1.47 µM (inactive) | 16.1 µM (inactive)
3 | O=C1c2ccccc2CC12CCC1(CC2)OCCO1 | > 100 µM (inactive) | > 100 µM (inactive) | > 100 µM (inactive) | > 100 µM (inactive) | > 100 µM (inactive) | > 100 µM (inactive) | > 100 µM (inactive) | > 100 µM (inactive) |  | > 100 µM (inactive) | > 100 µM (inactive) | > 100 µM (inactive) | > 100 µM (inactive) | > 100 µM (inactive) | > 100 µM (inactive) | > 100 µM (inactive) | > 100 µM (inactive) | > 100 µM (inactive) | > 100 µM (inactive) | > 100 µM (inactive)
4 | Clc1nc(Cl)c(-c2ccccc2)c(Cl)n1 | 3.42 µM (inactive) | 17.1 µM (inactive) |  | 1.87 µM (inactive) | 2.48 µM (inactive) | 4.92 µM (inactive) |  | 2.96 µM (inactive) | 16.2 µM (inactive) | 1.62 µM (inactive) | 3.83 µM (inactive) | 4.68 µM (inactive) | 2.75 µM (inactive) | 0.64 µM (active) | 2.49 µM (inactive) | 4.61 µM (inactive) | 3.19 µM (inactive) | 2.82 µM (inactive) | 2.69 µM (inactive) | 1.66 µM (inactive)
5 | O=C1CN(c2ccccc2)C(=O)CN1NCNN1CC(=O)N(c2ccccc2)CC1=O |  | > 100 µM (inactive) |  | > 100 µM (inactive) | > 100 µM (inactive) | > 100 µM (inactive) | > 100 µM (inactive) | > 100 µM (inactive) | > 100 µM (inactive) | > 100 µM (inactive) | > 100 µM (inactive) | > 100 µM (inactive) | > 100 µM (inactive) | > 100 µM (inactive) | > 100 µM (inactive) | > 100 µM (inactive) | > 100 µM (inactive) | > 100 µM (inactive) | > 100 µM (inactive) | 
6 | O=Cc1ccc2c(c1)CC1(Cc3ccccc3C1)C2 | 26.5 µM (inactive) | > 100 µM (inactive) | 11.2 µM (inactive) |  | 2.82 µM (inactive) | 20.5 µM (inactive) | 25.9 µM (inactive) | 18.4 µM (inactive) | 30.3 µM (inactive) | 13.1 µM (inactive) | 3.72 µM (inactive) | 55.8 µM (inactive) | 19.3 µM (inactive) |  | 18.7 µM (inactive) | > 100 µM (inactive) |  | 20.5 µM (inactive) | 24.8 µM (inactive) | 18.4 µM (inactive)
7 | C[N+](C)(C)c1ncnc2c1ncn2C1CCCO1 (centres undefined) | > 100 µM (inactive) | > 100 µM (inactive) | > 100 µM (inactive) |  |  | > 100 µM (inactive) | > 100 µM (inactive) | > 100 µM (inactive) | > 100 µM (inactive) | > 100 µM (inactive) | > 100 µM (inactive) | > 100 µM (inactive) | > 100 µM (inactive) | 84.9 µM (inactive) | > 100 µM (inactive) | > 100 µM (inactive) | > 100 µM (inactive) | > 100 µM (inactive) | > 100 µM (inactive) | 
8 | C/C=C\C(CC(=O)NCCc1c[nH]c2ccccc12)CC(=O)OC (centres undefined) | > 100 µM (inactive) | > 100 µM (inactive) | > 100 µM (inactive) | > 100 µM (inactive) |  | > 100 µM (inactive) | > 100 µM (inactive) | > 100 µM (inactive) | > 100 µM (inactive) | > 100 µM (inactive) | > 100 µM (inactive) | > 100 µM (inactive) | > 100 µM (inactive) | > 100 µM (inactive) | > 100 µM (inactive) | > 100 µM (inactive) | > 100 µM (inactive) | > 100 µM (inactive) | > 100 µM (inactive) | 
9 | CC(Nc1ncc2c(n1)-c1ccccc1OC2)C(=O)O (centres undefined) | > 100 µM (inactive) | > 100 µM (inactive) | > 100 µM (inactive) | 30.8 µM (inactive) | 48.5 µM (inactive) | 25.2 µM (inactive) | > 100 µM (inactive) | > 100 µM (inactive) |  | > 100 µM (inactive) | 82.4 µM (inactive) | > 100 µM (inactive) | > 100 µM (inactive) | 40.7 µM (inactive) | > 100 µM (inactive) | > 100 µM (inactive) | > 100 µM (inactive) | 60.3 µM (inactive) | 34.2 µM (inactive) | > 100 µM (inactive)
10 | C[C@]12CCNC(=O)C=C1CC[C@@H]1C2CC[C@@]2(C)C1CC[C@@H]2OC(=O)COc1ccc(N(CCCl)CCCl)cc1 (some centres undefined) |  | 5.37 µM (inactive) | 18.5 µM (inactive) | 4.15 µM (inactive) | 0.138 µM (active) | 13.1 µM (inactive) | > 10 µM (inactive) | 0.145 µM (active) | 18.6 µM (inactive) | 6.35 µM (inactive) | 17.7 µM (inactive) | 8.28 µM (inactive) | 4.09 µM (inactive) | 8.75 µM (inactive) | 13.3 µM (inactive) | 12.6 µM (inactive) | 2.74 µM (inactive) | 13.8 µM (inactive) | 4.65 µM (inactive) | 3.21 µM (inactive)
11 | ClCCc1ccccc1CC1=NCCc2ccccc21 | 21.9 µM (inactive) | 33.2 µM (inactive) | 18.5 µM (inactive) | 33 µM (inactive) | > 100 µM (inactive) | 32 µM (inactive) | 30.5 µM (inactive) | 26.9 µM (inactive) | 37.6 µM (inactive) | 24.5 µM (inactive) | 28.5 µM (inactive) | 29.3 µM (inactive) | 28.4 µM (inactive) | 22 µM (inactive) |  | 40.6 µM (inactive) | 29 µM (inactive) | 34 µM (inactive) | 16.3 µM (inactive) | 76.7 µM (inactive)
12 | O=[N+]([O-])c1ccc(C2CC(c3ccccc3Cl)=Nc3ccccc3[S+]2[O-])cc1 (centres undefined) |  | 9.64 µM (inactive) | 15 µM (inactive) | 2.48 µM (inactive) | 2.84 µM (inactive) | 2.77 µM (inactive) | 4.67 µM (inactive) | 1.9 µM (inactive) | 2.34 µM (inactive) | 5.71 µM (inactive) | 2.75 µM (inactive) | 3.82 µM (inactive) | 2.87 µM (inactive) | 5.55 µM (inactive) | 9.51 µM (inactive) | 3.71 µM (inactive) | 8.83 µM (inactive) | 15.8 µM (inactive) | 1.77 µM (inactive) | 2.07 µM (inactive)
13 | O=c1c(Cc2ccc(Cl)cc2)nnc2sc(-c3ccc(-c4ccc(F)c(Cl)c4)o3)nn12 | 56.9 µM (inactive) | 51.3 µM (inactive) | 51.4 µM (inactive) | 43 µM (inactive) |  | 72.3 µM (inactive) | 57.1 µM (inactive) | 43.7 µM (inactive) | 42.2 µM (inactive) | 64.6 µM (inactive) | > 100 µM (inactive) | 91.2 µM (inactive) | 58.7 µM (inactive) |  | 95.3 µM (inactive) | 56.1 µM (inactive) | 76.6 µM (inactive) | 97.3 µM (inactive) | > 100 µM (inactive) | 70.5 µM (inactive)
14 | Cc1cc(C)c2nccc(NCCCN(C)C)c2c1[N+](=O)[O-] |  | 30.8 µM (inactive) | 23.8 µM (inactive) | 32.2 µM (inactive) | 30.6 µM (inactive) | 19.6 µM (inactive) | 20.6 µM (inactive) | 39.6 µM (inactive) | 59 µM (inactive) | 19.1 µM (inactive) | 34 µM (inactive) | 31.4 µM (inactive) | 37.6 µM (inactive) | 24.9 µM (inactive) | 38.8 µM (inactive) | 44 µM (inactive) | 33 µM (inactive) | 17.1 µM (inactive) | 34.6 µM (inactive) | 18.6 µM (inactive)
15 | CC(C)[C@@H]1OC(=O)[C@@H](C)NC(=O)[C@@H]2CCCN2C1=O (cyclo([Hiv]-Pro-[dA])) | > 100 µM (inactive) | > 100 µM (inactive) | > 100 µM (inactive) | > 100 µM (inactive) | > 100 µM (inactive) | > 100 µM (inactive) | > 100 µM (inactive) | > 100 µM (inactive) | > 100 µM (inactive) | > 100 µM (inactive) | > 100 µM (inactive) | > 100 µM (inactive) | > 100 µM (inactive) |  | > 100 µM (inactive) | > 100 µM (inactive) | > 100 µM (inactive) | > 100 µM (inactive) |  | > 100 µM (inactive)
